This is an account of results in ChEMBL document CHEMBL1152008, “N,N-disubstituted benzopyran-4-(N-cyano)carboxamidines, cromakalim analogs with selective activity for guinea pig trachealis” (Bioorg Med Chem Lett, 1993).

Common to all, as to format: functional
For assay [1], the species on record is Cavia porcellus. As to the kind of experiment: Tested for relaxation of guinea pig trachealis smooth muscle.
Assay [2] is filed under the species Cavia porcellus. As to the kind of experiment: Tested for the ability to inhibit spontaneous tone in guinea pig trachealis by 50%, activity expresses as negative logarithm of molar concentration.
For assay [3], the species on record is Rattus norvegicus. As to the kind of experiment: Tested for relaxation of rat aorta smooth muscle.
The species named for assay [4] is Rattus norvegicus. As to the kind of experiment: Tested for relaxation of rat aorta smooth muscle precontracted with 30 mM KCI by 50%, activity expresses as negative logarithm of molar concentration.

For orientation: EC50 means the midpoint of the concentration-response curve. Higher therefore signals a need for much substance. In the case of `C/N=C(/NC#N)C1=CC(C)(C)Oc2ccc([N+](=O)[O-])cc21`, the IA in assay [1] is given as 86.5%; in assay [3], 79.9%. The figures for the EC50 in assay [2] and in assay [4] were 0.0234 µM and 0.0151 µM, respectively.
Consider `C/N=C(/NC#N)C1=CC(C)(C)Oc2ccc(C#N)cc21`, for which the IA is 86% in assay [1] and 73% in assay [3]. For the same compound, the EC50 in assay [2] was 0.646 µM.
Consider `CCN(CC)/C(=N\C#N)C1=CC(C)(C)Oc2ccc([N+](=O)[O-])cc21`, for which the EC50 in assay [2] and in assay [4] was greater than 31.6 µM in each case.
The compound `CN(C)/C(=N\C#N)C1=CC(C)(C)Oc2ccc([N+](=O)[O-])cc21` gave an IA in assay [1] of 90.6%. The compound further showed an EC50 in assay [4] greater than 31.6 µM.
In assay [1], `CCN(C)/C(=N\C#N)C1=CC(C)(C)Oc2ccc([N+](=O)[O-])cc21` showed an IA of 77.9%. For the same compound, the EC50 in assay [2] was 0.178 µM; in assay [4] it was greater than 31.6 µM.
Take `CC/N=C(/NC#N)C1=CC(C)(C)Oc2ccc([N+](=O)[O-])cc21`: the IA is reported as 85.3% in assay [1] and 75.1% in assay [3]. Also, the EC50 in assay [2] was 0.17 µM; in assay [4], 0.0891 µM.
Consider `CC1(C)Oc2ccc(C#N)cc2[C@H](N2CCCC2=O)[C@H]1O` (single isomer, unassigned) [(-)-CROMAKALIM], for which the IA is 85.1% in assay [1] and 74.7% in assay [3].
With `CC(N/C(=N\C#N)Nc1ccncc1)C(C)(C)C` (configuration not stated) [PINACIDIL ANHYDROUS], the figures for the IA in assay [1] and in assay [3] were 97.3% and 91.9%, respectively.
